Test results taken from patent US11446287B2, “Compounds and methods for EP300 or CBP modulation and indications therefor” (Opna Immuno-Oncology SA, priority 2019, dated 2022).

Target: T1, Recombinant human EP300 containing the bromodomain (EP300-BD (1040-1161)) (Homo sapiens, UniProt Q09472)
T1 construct: Recombinant human EP300 bromodomain (EP300-BD (1040-1161)); made in house; host or cells: E. coli BL21-CodonPlus (DE3), modified pET vector
T1 sequence (Q09472 1040-1161): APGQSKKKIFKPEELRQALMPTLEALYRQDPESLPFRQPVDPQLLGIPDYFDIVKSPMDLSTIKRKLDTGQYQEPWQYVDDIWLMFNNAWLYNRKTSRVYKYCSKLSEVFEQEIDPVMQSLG
Experiment: EP300 Alphascreen binding assay
Method in brief: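 Displacement of a biotinylated acetyl-K56 histone H3 peptide from the N-His bromodomain construct (1040-1161) measured by AlphaScreen proximity, beads at 7.5 μg/ml final, read 60 min after addition. Protein, peptide and compound first incubated 1 h at room temperature, pH 7.5 HEPES buffer; IC50 by four-parameter logistic fit.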

Structure (SMILES)	IC50 [nM]
Cc1noc(C)c1-c1cnc2c(-c3ccc(C(=O)O)cc3F)c(C(F)(F)F)n([C@@H](C)c3ccccn3)c2c1 [P-0234, (S)-4-(6-(3,5-dimethylisoxazol-4-yl)-1-(1-(pyridin-2-yl)ethyl)-2-(trifluoromethyl)-1H-pyrrolo[3,2-b]pyridin-3-yl)-3-fluorobenzoic acid]	0.1 to 1000
Cc1noc(C)c1-c1cnc2c(c1)c(-c1c(F)cc(C(=O)O)cc1OC(F)(F)F)cn2C(C1CC1)C1CC1 [P-0230, 4-(1-(dicyclopropylmethyl)-5-(3,5-dimethylisoxazol-4-yl)-1H-pyrrolo[2,3-b]pyridin-3-yl)-3-fluoro-5-(trifluoromethoxy)benzoic acid]	0.1 to 1000
CCOc1cc(C(=O)O)cc(OCC)c1-n1cc(-c2cncc(Cl)c2)c2ncc(-c3c(C)noc3C)cc21 [P-0193, 4-(3-(5-chloropyridin-3-yl)-6-(3,5-dimethylisoxazol-4-yl)-1H-pyrrolo[3,2-b]pyridin-1-yl)-3,5-diethoxybenzoic acid]	0.1 to 1000
Cc1noc(C)c1-c1cnc2c(c1)c(-c1ccc(C(=O)O)cc1OC(F)(F)F)cn2-c1ncccc1Cl [P-0183, 4-(1-(3-chloropyridin-2-yl)-5-(3,5-dimethylisoxazol-4-yl)-1H-pyrrolo[2,3-b]pyridin-3-yl)-3-(trifluoromethoxy)benzoic acid]	0.1 to 1000
COc1ccc(C(=O)O)cc1-c1c(C(F)(F)F)n([C@@H](C)c2ccccn2)c2cc(-c3c(C)noc3C)cnc12 [P-0239, (S)-3-(6-(3,5-dimethylisoxazol-4-yl)-1-(1-(pyridin-2-yl)ethyl)-2-(trifluoromethyl)-1H-pyrrolo[3,2-b]pyridin-3-yl)-4-methoxybenzoic acid]	0.1 to 1000
Cc1noc(C)c1-c1cnc2c(c1)c(-c1ccc(C(=O)O)cc1)cn2C(C)c1ncccn1 (centres unmarked) [P-0013, 4-(5-(3,5-dimethylisoxazol-4-yl)-1-(1-(pyrimidin-2-yl)ethyl)-1H-pyrrolo[2,3-b]pyridin-3-yl)benzoic acid]	0.1 to 1000
Cc1noc(C)c1-c1cnc2c(c1)c(-c1ccncc1)cn2C(c1ccccn1)C1CCCC1 (centres unmarked) [P-0019, 4-(1-(cyclopentyl(pyridin-2-yl)methyl)-3-(pyridin-4-yl)-1H-pyrrolo[2,3-b]pyridin-5-yl)-3,5-dimethylisoxazole]	1000 to 8000
COc1cc(C(=O)O)cc(OC)c1-n1cc(-c2ccccc2)c2ncc(-c3c(C)noc3C)cc21 [P-0220, 4-(6-(3,5-dimethylisoxazol-4-yl)-3-phenyl-1H-pyrrolo[3,2-b]pyridin-1-yl)-3,5-dimethoxybenzoic acid]	0.1 to 1000
Cc1noc(C)c1-c1cnc2c(c1)c(-c1ccc(C(=O)O)cc1C#CC1CC1)cn2[C@@H](C)c1ccccn1 [P-0178, (S)-3-(cyclopropylethynyl)-4-(5-(3,5-dimethylisoxazol-4-yl)-1-(1-(pyridin-2-yl)ethyl)-1H-pyrrolo[2,3-b]pyridin-3-yl)benzoic acid]	1000 to 8000
CCOc1cc(C(=O)O)cc(OCC)c1-n1cc(-c2ccc(F)cc2F)c2ncc(-c3c(C)noc3C)cc21 [P-0186, 4-(3-(2,4-difluorophenyl)-6-(3,5-dimethylisoxazol-4-yl)-1H-pyrrolo[3,2-b]pyridin-1-yl)-3,5-diethoxybenzoic acid]	0.1 to 1000
CCOc1cc(C(=O)O)cc(OCC)c1-n1cc(-c2ccc(C(=O)NC3CC3)cc2)c2ncc(-c3c(C)noc3C)cc21 [P-0218, 4-(3-(4-(cyclopropylcarbamoyl)phenyl)-6-(3,5-dimethylisoxazol-4-yl)-1H-pyrrolo[3,2-b]pyridin-1-yl)-3,5-diethoxybenzoic acid]	0.1 to 1000
CCOc1cc(C(=O)O)cc(OCC)c1-n1cc(-c2ccc(F)c(Cl)c2)c2ncc(-c3c(C)noc3C)cc21 [P-0209, 4-(3-(3-chloro-4-fluorophenyl)-6-(3,5-dimethylisoxazol-4-yl)-1H-pyrrolo[3,2-b]pyridin-1-yl)-3,5-diethoxybenzoic acid]	0.1 to 1000
Cc1noc(C)c1-c1cnc2c(-c3ccccc3)cn(-c3c(Cl)cccc3C#N)c2c1 [P-0207, 3-chloro-2-(6-(3,5-dimethylisoxazol-4-yl)-3-phenyl-1H-pyrrolo[3,2-b]pyridin-1-yl)benzonitrile]	1000 to 8000
COc1ccncc1-n1cc(-c2ccc(C(=O)O)cc2OC(F)(F)F)c2cc(-c3c(C)noc3C)cnc21 [P-0176, 4-(5-(3,5-dimethylisoxazol-4-yl)-1-(4-methoxypyridin-3-yl)-1H-pyrrolo[2,3-b]pyridin-3-yl)-3-(trifluoromethoxy)benzoic acid]	0.1 to 1000
Cc1noc(C)c1-c1cnc2c(c1)c(-c1ccc(C(=O)O)cc1OC(F)(F)F)cn2CCN1CCOCC1 [P-0191, 4-(5-(3,5-dimethylisoxazol-4-yl)-1-(2-morpholinoethyl)-1H-pyrrolo[2,3-b]pyridin-3-yl)-3-(trifluoromethoxy)benzoic acid]	0.1 to 1000
Cc1noc(C)c1-c1cnc2c(-c3cc(F)cc(C(=O)O)c3)c(C(F)(F)F)n([C@@H](C)c3ccccn3)c2c1 [P-0240, (S)-3-(6-(3,5-dimethylisoxazol-4-yl)-1-(1-(pyridin-2-yl)ethyl)-2-(trifluoromethyl)-1H-pyrrolo[3,2-b]pyridin-3-yl)-5-fluorobenzoic acid]	0.1 to 1000
CCOc1cc(C(=O)O)cc(OCC)c1-n1cc(Cc2ccccn2)c2ncc(-c3c(C)noc3C)cc21 [P-0187, 4-(6-(3,5-dimethylisoxazol-4-yl)-3-(pyridin-2-ylmethyl)-1H-pyrrolo[3,2-b]pyridin-1-yl)-3,5-diethoxybenzoic acid]	0.1 to 1000
Cc1noc(C)c1-c1cnc2c(c1)c(-c1ccc(C(=O)O)cc1OC(F)(F)F)cn2C(CC#N)C1CCCC1 (centres unmarked) [P-0200, 4-(1-(2-cyano-1-cyclopentylethyl)-5-(3,5-dimethylisoxazol-4-yl)-1H-pyrrolo[2,3-b]pyridin-3-yl)-3-(trifluoromethoxy)benzoic acid]	0.1 to 1000
CCOc1cc(C(=O)O)cc(OCC)c1-n1cc(-c2cnc(OC)nc2)c2ncc(-c3c(C)noc3C)cc21 [P-0201, 4-(6-(3,5-dimethylisoxazol-4-yl)-3-(2-methoxypyrimidin-5-yl)-1H-pyrrolo[3,2-b]pyridin-1-yl)-3,5-diethoxybenzoic acid]	0.1 to 1000
Cc1noc(C)c1-c1cnc2c(c1)c(-c1ccc(C(=O)O)cc1OC(F)(F)F)cn2C1CCS(=O)(=O)CC1 [P-0212, 4-(5-(3,5-dimethylisoxazol-4-yl)-1-(1,1-dioxidotetrahydro-2H-thiopyran-4-yl)-1H-pyrrolo[2,3-b]pyridin-3-yl)-3-(trifluoromethoxy)benzoic acid]	0.1 to 1000
COc1cccc(OC)c1-n1cc(-c2ccccc2)c2ncc(-c3c(C)noc3C)cc21 [P-0221, 4-(1-(2,6-dimethoxyphenyl)-3-phenyl-1H-pyrrolo[3,2-b]pyridin-6-yl)-3,5-dimethylisoxazole]	0.1 to 1000
CCOc1cc(C(=O)O)cc(OCC)c1-n1cc(CC2CCC2)c2ncc(-c3c(C)nnn3C)cc21 [P-0190, 4-(3-(cyclobutylmethyl)-6-(1,4-dimethyl-1H-1,2,3-triazol-5-yl)-1H-pyrrolo[3,2-b]pyridin-1-yl)-3,5-diethoxybenzoic acid]	0.1 to 1000
Cc1noc(C)c1-c1cnc2c(-c3cc(Cl)cc(C(=O)O)c3)c(C(F)(F)F)n([C@@H](C)c3ccccn3)c2c1 [P-0241, (S)-3-chloro-5-(6-(3,5-dimethylisoxazol-4-yl)-1-(1-(pyridin-2-yl)ethyl)-2-(trifluoromethyl)-1H-pyrrolo[3,2-b]pyridin-3-yl)benzoic acid]	0.1 to 1000
